Source: patent US5030760A, “Tetrahydrophthalimides, and their production and use” (Sumitomo Chemical Company, Ltd., priority 1981, dated 1991)

Legend:
corn [1] = test: Test Example 2, field foliar treatment, phytotoxicity to corn; assay type: in vivo; details: 3 weeks; note: ranges in brackets are in %
Experimental: (§1) The application of the tetrahydrophthalimides (I) as herbicides will be illustratively shown in the following Examples wherein the phytotoxicity to cultivated plants and the herbicidal activity on weeds were evaluated as follows: the aerial parts of the test plants were cut off and weighed (fresh weight); the percentage of the fresh weight of the treated plant to that of the untreated plant was calculated with the latter fresh weight taken as 100; and the crop damage and the herbicidal activity were evaluated by the standard given in the table below. The rating values of phytotoxicity, 0 and 1, and those of herbicidal effect, 5 and 4, are generally regarded as satisfactory to protect cultivated plants and control weeds, respectively. The rating values in the paddy field test alone were calculated from the dry weight of the test plants.
(§2) Seeds of corn and broad-leaved weeds such as cocklebur, common purslane and tall morningglory were sown in the field as previously laid up in ridges, each ridge having an upper width of 1 m. At the time when the corn grew up to the 6-leaf stage and the broad-leaved weeds up to 2 to 5-leaf stages, a designed amount of the test compound formulated into an emulsifiable concentrate according to Preparation Example 2 and dispersed in water was sprayed to the foliage of the test plants with three replications over the top by means of a small hand sprayer at a spray volume of 5 liters per are. After cultivation for 3 weeks, herbicidal activity and phytotoxicity were examined.

monochoria = test: Test Example 7, flooded paddy pot dripping, herbicidal activity; assay type: in vivo, Monochoria vaginalis; details: 3 weeks; note: ranges in brackets are in %
Experimental: as §1
(§3) Wagner's pots (1/5000 are) were filled with paddy field soil and water was poured therein to make a flooded condition. Rice seedlings of the 3-leaf stage were transplanted and tubers of slender spikerush and arrowhead and the seeds of barnyardgrass, monochoria and broad-leaved weed were sowed therein and grown for 5 days. When germination occurs, a designed amount of the test compound formulated into an emulsifiable concentrate according to Preparation Example 2 was applied to the pots by dripping. The test plants were grown for a further 3 weeks, and herbicidal activity and phytotoxicity were examined. The herbicidal activity was evaluated in figures ranging from 0 to 5. The phytotoxicity to the crop plants was also indicated on the same standard as that of the herbicidal activity.

tall morningglory [2] = test: Test Example 2, field foliar treatment, herbicidal activity; assay type: in vivo, Ipomoea purpurea; details: 3 weeks; note: ranges in brackets are in %
Experimental: as §1, §2

cocklebur = test: as above; assay type: in vivo, Xanthium pennsylvanicum; details: 3 weeks; note: ranges in brackets are in %
Experimental: as §1, §2

barnyardgrass [3] = test: Test Example 7, flooded paddy pot dripping, herbicidal activity; assay type: in vivo, Echinochloa crus-galli; details: 3 weeks; note: ranges in brackets are in %
Experimental: as §1, §3

rice plant = test: Test Example 7, flooded paddy pot dripping, phytotoxicity to rice plant; assay type: in vivo; details: 3 weeks; note: ranges in brackets are in %
Experimental: as §1, §3

arrowhead = test: Test Example 7, flooded paddy pot dripping, herbicidal activity; assay type: in vivo, Sagittaria pygmaea; details: 3 weeks; note: ranges in brackets are in %
Experimental: as §1, §3

broad-leaved weed = test: as above; assay type: in vivo; details: 3 weeks; note: ranges in brackets are in %
Experimental: as §1, §3

slender spikerush = test: as above; assay type: in vivo, Eleocharis acicularis; details: 3 weeks; note: ranges in brackets are in %
Experimental: as §1, §3

common purslane = test: Test Example 2, field foliar treatment, herbicidal activity; assay type: in vivo, Portulaca oleracea; details: 3 weeks; note: ranges in brackets are in %
Experimental: as §1, §2

morningglory = test: Test Example 4, pre-emergence treatment, herbicidal activity; assay type: in vivo; details: 10 g/are, 20 days; note: ranges in brackets are in %
Experimental: as §1
(§4) Plastic beakers (diameter, 10 cm; height, 10 cm) were filled with upland field soil, and the seeds of corn, cotton and soybean and the seeds of morningglory, velvetleaf, Johnsongrass and green foxtail were separately sown in the beakers. A designed amount of the test compound was sprayed over the top by means of a small hand sprayer. After the spraying, the test plants were grown for 20 days in the greenhouse, and herbicidal activity and phytotoxicity were examined. In this pre-emergence treatment, the test compounds were formulated into an emulsifiable concentrate according to Preparation Example 2 and applied at a spray volume of 5 liters per are by dispersing it in water with the addition of a spreading agent.

corn [4] = test: Test Example 1, foliar treatment, phytotoxicity to corn; assay type: in vivo; details: 3 weeks; note: ranges in brackets are in %
Experimental: as §1
(§5) Plastic beakers (diameter, 10 cm; height, 10 cm) were filled with upland field soil, and the seeds of corn, barnyardgrass, wild oat, wild mustard and velvetleaf were separately sown in the beakers and grown for 2 weeks in the greenhouse. A designed amount of the test compound was sprayed to the foliage of the test plants by means of a small hand sprayer. After the spraying, the test plants were further grown for 3 weeks in the greenhouse, and herbicidal activity was examined. In this foliar treatment, the test compounds were formulated into an emulsifiable concentrate according to Preparation Example 2 and applied at a spray volume of 5 liters per are by dispersing it in water with the addition of a spreading agent.

large crabgrass = test: Test Example 5, spraying over the top, herbicidal activity; assay type: in vivo, Digitaria sanguinalis; details: sprayed over the top, 20 days; note: ranges in brackets are in %
Experimental: as §1
(§6) Plastic trays (35 cm×25 cm×15 cm) were filled with upland field soil, and the seeds of tall morningglory, velvetleaf, jimsonweed, sicklepod, hemp sesbania, prickly side, Johnsongrass, green foxtail and large crabgrass and the seeds of soybean were sown therein. A designed amount of the test compound formulated into a wettable powder according to Preparation Example 1 and dispersed in water was sprayed over the top by means of a small hand sprayer at a spray volume of 5 liters per are. After the spraying, the test plants were grown in greenhouse for 20 days, and phytotoxicity and herbicidal activity were examined.

Johnsongrass [5] = test: Test Example 4, pre-emergence treatment, herbicidal activity; assay type: in vivo, Sorghum halepense; details: 20 days; note: ranges in brackets are in %
Experimental: as §1, §4

wild mustard = test: Test Example 1, foliar treatment, herbicidal activity; assay type: in vivo, Brassica kaber; details: 3 weeks
Experimental: as §1, §5

corn [6] = test: Test Example 4, pre-emergence treatment, phytotoxicity to corn; assay type: in vivo; details: 20 days; note: ranges in brackets are in %
Experimental: as §1, §4

velvetleaf [7] = test: Test Example 5, spraying over the top, herbicidal activity; assay type: in vivo, Abutilon theophrasti; details: sprayed over the top, 20 days; note: ranges in brackets are in %
Experimental: as §1, §6

prickly sida = test: as above; assay type: in vivo, Sida spinosa; details: sprayed over the top, 20 days; note: ranges in brackets are in %
Experimental: as §1, §6

jimsonweed = test: as above; assay type: in vivo, Datura stramonium; details: sprayed over the top, 20 days; note: ranges in brackets are in %
Experimental: as §1, §6

tall morningglory [8] = test: as above; assay type: in vivo, Ipomoea purpurea; details: sprayed over the top, 20 days
Experimental: as §1, §6

hemp sesbania = test: as above; assay type: in vivo, Sesbania exaltator; details: sprayed over the top, 20 days; note: ranges in brackets are in %
Experimental: as §1, §6

wild oat = test: Test Example 1, foliar treatment, herbicidal activity; assay type: in vivo, Avena fatua; details: 3 weeks; note: ranges in brackets are in %
Experimental: as §1, §5

barnyardgrass [9] = test: as above; assay type: in vivo, Echinochloa crus-galli; details: 3 weeks
Experimental: as §1, §5

sicklepod = test: Test Example 5, spraying over the top, herbicidal activity; assay type: in vivo, Cassia obtusifolia; details: sprayed over the top, 20 days; note: ranges in brackets are in %
Experimental: as §1, §6

cotton = test: Test Example 4, pre-emergence treatment, phytotoxicity to cotton; assay type: in vivo; details: 2.5 g/are, 20 days; note: ranges in brackets are in %
Experimental: as §1, §4

soybean [10] = test: Test Example 4, pre-emergence treatment, phytotoxicity to soybean; assay type: in vivo; details: 20 days; note: ranges in brackets are in %
Experimental: as §1, §4

Johnsongrass [11] = test: Test Example 5, spraying over the top, herbicidal activity; assay type: in vivo, Sorghum halepense; details: sprayed over the top, 20 days; note: ranges in brackets are in %
Experimental: as §1, §6

velvetleaf [12] = test: Test Example 1, foliar treatment, herbicidal activity; assay type: in vivo, Abutilon theophrasti; details: 3 weeks; note: ranges in brackets are in %
Experimental: as §1, §5

green foxtail [13] = test: Test Example 4, pre-emergence treatment, herbicidal activity; assay type: in vivo, Setaria viridis; details: 20 days; note: ranges in brackets are in %
Experimental: as §1, §4

soybean [14] = test: Test Example 5, spraying over the top, phytotoxicity to soybean; assay type: in vivo; details: sprayed over the top, 20 days; note: ranges in brackets are in %
Experimental: as §1, §6

velvetleaf [15] = test: Test Example 4, pre-emergence treatment, herbicidal activity; assay type: in vivo, Abutilon theophrasti; details: 20 days; note: ranges in brackets are in %
Experimental: as §1, §4

green foxtail [16] = test: Test Example 5, spraying over the top, herbicidal activity; assay type: in vivo, Setaria viridis; details: sprayed over the top, 20 days; note: ranges in brackets are in %
Experimental: as §1, §6
Throughout, for Herbicidal activity, Barnyardgrass: ranges in brackets are in %.
Throughout, for Herbicidal activity, Tall morningglory: ranges in brackets are in %.

With `CCCCCOc1cc(N2C(=O)C3=C(CCCC3)C2=O)c(F)cc1Cl` [Compound No. 7, N-(4-chloro-2-fluoro-5-n-amyloxyphenyl)-3,4,5,6-terahydrophthalimide] the “Phytotoxicity, Corn” value (corn [1]; 0.16 g/are) was 0 (100), the “Phytotoxicity, Corn” value (corn [1]; 0.32 g/are) was 0 (100) and the “Phytotoxicity, Corn” value (corn [1]; 0.63 g/are) was 0 (100). The “Herbicidal activity, Monochoria” value (monochoria; 1.25 g/are) was 5 (90-100), the “Herbicidal activity, Monochoria” value (monochoria; 2.5 g/are) was 5 (90-100) and the “Herbicidal activity, Monochoria” value (monochoria; 5 g/are) was 5 (90-100). For the same molecule, the “Herbicidal activity, Tall morningglory” value (tall morningglory [2]; 0.16 g/are) was 2 (21-40), the “Herbicidal activity, Tall morningglory” value (tall morningglory [2]; 0.32 g/are) was 3 (11-20) and the “Herbicidal activity, Tall morningglory” value (tall morningglory [2]; 0.63 g/are) was 4 (1-10). For the same molecule, the “Herbicidal activity, Cocklebur” value (cocklebur; 0.16 g/are) was 4 (1-10), the “Herbicidal activity, Cocklebur” value (cocklebur; 0.32 g/are) was 4 (1-10) and the “Herbicidal activity, Cocklebur” value (cocklebur; 0.63 g/are) was 5 (0). For the same molecule, the “Herbicidal activity, Barnyardgrass” value (barnyardgrass [3]; 1.25 g/are) was 4 (70-89), the “Herbicidal activity, Barnyardgrass” value (barnyardgrass [3]; 2.5 g/are) was 5 (90-100) and the “Herbicidal activity, Barnyardgrass” value (barnyardgrass [3]; 5 g/are) was 5 (90-100). The “Phytotoxicity, Rice plant” value (rice plant; 1.25 g/are) was 0 (0-9), the “Phytotoxicity, Rice plant” value (rice plant; 2.5 g/are) was 0 (0-9) and the “Phytotoxicity, Rice plant” value (rice plant; 5 g/are) was 0 (0-9). For the same molecule, the “Herbicidal activity, Allowhead” value (arrowhead; 1.25 g/are) was 3 (50-69), the “Herbicidal activity, Allowhead” value (arrowhead; 2.5 g/are) was 4 (70-89) and the “Herbicidal activity, Allowhead” value (arrowhead; 5 g/are) was 5 (90-100). For the same molecule, the “Herbicidal activity, Broad-leaved weed” value (broad-leaved weed; 1.25 g/are) was 5 (90-100), the “Herbicidal activity, Broad-leaved weed” value (broad-leaved weed; 2.5 g/are) was 5 (90-100) and the “Herbicidal activity, Broad-leaved weed” value (broad-leaved weed; 5 g/are) was 5 (90-100). For the same molecule, the “Herbicidal activity, Slender spikerush” value (slender spikerush; 1.25 g/are) was 4 (70-89), the “Herbicidal activity, Slender spikerush” value (slender spikerush; 2.5 g/are) was 5 (90-100) and the “Herbicidal activity, Slender spikerush” value (slender spikerush; 5 g/are) was 5 (90-100). The “Herbicidal activity, Common purslane” value (common purslane; 0.16 g/are) was 5 (0), the “Herbicidal activity, Common purslane” value (common purslane; 0.32 g/are) was 5 (0) and the “Herbicidal activity, Common purslane” value (common purslane; 0.63 g/are) was 5 (0).
In the case of `COc1cc(N2C(=O)C3=C(CCCC3)C2=O)c(F)cc1Br` [Compound No. 12, N-(4-bromo-2-fluoro-5-methoxyphenyl)-3,4,5,6-tetrahydrophthalimide], the “Herbicidal activity, Morningglory” value (morningglory) is reported as 5 (0), the “Phytotoxicity, Corn” value (corn [4]; 1.25 g/are) is reported as 1 (90-99) and the “Phytotoxicity, Corn” value (corn [4]; 5 g/are) is reported as 1 (90-99). For the same molecule, the “Herbicidal activity, Large crabgrass” value (large crabgrass; 3 g/are) was 5 (0), the “Herbicidal activity, Large crabgrass” value (large crabgrass; 9 g/are) was 5 (0) and the “Herbicidal activity, Johnsongrass” value (Johnsongrass [5]; 2.5 g/are) was 5 (0). The “Herbicidal activity, Johnsongrass” value (Johnsongrass [5]; 10 g/are) was 5 (0), the “Herbicidal activity, Wild mustard” value (wild mustard; 1.25 g/are) was 4 (1-10) and the “Herbicidal activity, Wild mustard” value (wild mustard; 5 g/are) was 5 (0). For the same molecule, the “Phytotoxicity, Corn” value (corn [6]; 2.5 g/are) was 0 (100), the “Phytotoxicity, Corn” value (corn [6]; 10 g/are) was 1 (90-99) and the “Herbicidal activity, Velvetleaf” value (velvetleaf [7]; 3 g/are) was 5 (0). The “Herbicidal activity, Velvetleaf” value (velvetleaf [7]; 9 g/are) was 5 (0), the “Herbicidal activity, Prickly sida” value (prickly sida; 3 g/are) was 5 (0) and the “Herbicidal activity, Prickly sida” value (prickly sida; 9 g/are) was 5 (0). The “Herbicidal activity, Jimsonweed” value (jimsonweed; 3 g/are) was 5 (0), the “Herbicidal activity, Jimsonweed” value (jimsonweed; 9 g/are) was 5 (0) and the “Herbicidal activity, Tall morningglory” value (tall morningglory [8]; 3 g/are) was 4 (1-10). The “Herbicidal activity, Tall morningglory” value (tall morningglory [8]; 9 g/are) was 5 (0), the “Herbicidal activity, Hemp sesbania” value (hemp sesbania; 3 g/are) was 4 (1-10) and the “Herbicidal activity, Hemp sesbania” value (hemp sesbania; 9 g/are) was 5 (0). For the same molecule, the “Herbicidal activity, Wild cat” value (wild oat; 1.25 g/are) was 1 (41-60), the “Herbicidal activity, Wild cat” value (wild oat; 5 g/are) was 5 (0) and the “Herbicidal activity, Barnyardgrass” value (barnyardgrass [9]; 1.25 g/are) was 2 (21-40). For the same molecule, the “Herbicidal activity, Barnyardgrass” value (barnyardgrass [9]; 5 g/are) was 5 (0), the “Herbicidal activity, Sicklepod” value (sicklepod; 3 g/are) was 4 (1-10) and the “Herbicidal activity, Sicklepod” value (sicklepod; 9 g/are) was 5 (0). For the same molecule, the “Phytotoxicity, Cotton” value (cotton) was 0 (100), the “Phytotoxicity, Soybean” value (soybean [10]; 2.5 g/are) was 0 (100) and the “Phytotoxicity, Soybean” value (soybean [10]; 10 g/are) was 0 (100). The “Herbicidal activity, Johnsongrass” value (Johnsongrass [11]; 3 g/are) was 5 (0), the “Herbicidal activity, Johnsongrass” value (Johnsongrass [11]; 9 g/are) was 5 (0) and the “Herbicidal activity, Velvetleaf” value (velvetleaf [12]; 1.25 g/are) was 5 (0). For the same molecule, the “Herbicidal activity, Velvetleaf” value (velvetleaf [12]; 5 g/are) was 5 (0), the “Herbicidal activity, Green foxtail” value (green foxtail [13]; 2.5 g/are) was 5 (0) and the “Herbicidal activity, Green foxtail” value (green foxtail [13]; 10 g/are) was 5 (0). The “Phytotoxicity, Soybean” value (soybean [14]; 3 g/are) was 0 (100), the “Phytotoxicity, Soybean” value (soybean [14]; 9 g/are) was 0 (100) and the “Herbicidal activity, Velvetleaf” value (velvetleaf [15]; 2.5 g/are) was 5 (0). The “Herbicidal activity, Velvetleaf” value (velvetleaf [15]; 10 g/are) was 5 (0), the “Herbicidal activity, Green foxtail” value (green foxtail [16]; 3 g/are) was 5 (0) and the “Herbicidal activity, Green foxtail” value (green foxtail [16]; 9 g/are) was 5 (0).
